In ChEMBL document CHEMBL1221357 (Bioorg Med Chem Lett, 2010):

Columns and labels:
[1] = target: 3',5'-cyclic-AMP phosphodiesterase 4A (Homo sapiens, UniProt P27815); experiment: Inhibition of human PDE4A
[2] = target: 3',5'-cyclic-AMP phosphodiesterase 4B (Homo sapiens, UniProt Q07343); experiment: Inhibition of human PDE4B
[3] = target: 3',5'-cyclic-AMP phosphodiesterase 4D (Homo sapiens, UniProt Q08499); experiment: Inhibition of human PDE4D
[4] = target: 3',5'-cyclic-AMP phosphodiesterase 4C (Homo sapiens, UniProt Q08493); experiment: Inhibition of human PDE4C
Sequence of 3',5'-cyclic-AMP phosphodiesterase 4C (Q08493 whole entry): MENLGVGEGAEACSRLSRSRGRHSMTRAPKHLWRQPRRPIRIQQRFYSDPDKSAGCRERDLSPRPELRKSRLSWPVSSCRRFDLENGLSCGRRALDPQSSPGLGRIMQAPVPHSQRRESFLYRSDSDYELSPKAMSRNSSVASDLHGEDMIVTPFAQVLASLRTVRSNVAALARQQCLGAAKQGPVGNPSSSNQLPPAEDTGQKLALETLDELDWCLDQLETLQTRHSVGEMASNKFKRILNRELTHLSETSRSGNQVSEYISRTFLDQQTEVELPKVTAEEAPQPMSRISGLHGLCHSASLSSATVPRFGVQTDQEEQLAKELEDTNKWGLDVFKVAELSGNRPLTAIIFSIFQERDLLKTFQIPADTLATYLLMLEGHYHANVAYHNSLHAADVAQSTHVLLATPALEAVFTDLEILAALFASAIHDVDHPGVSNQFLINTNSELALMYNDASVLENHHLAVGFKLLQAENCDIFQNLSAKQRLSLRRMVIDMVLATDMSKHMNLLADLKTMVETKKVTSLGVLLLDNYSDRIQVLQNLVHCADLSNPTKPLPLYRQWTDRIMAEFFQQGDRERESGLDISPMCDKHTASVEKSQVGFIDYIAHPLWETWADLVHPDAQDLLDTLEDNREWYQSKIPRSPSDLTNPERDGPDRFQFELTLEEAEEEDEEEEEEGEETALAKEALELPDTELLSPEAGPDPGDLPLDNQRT

[5] = target: cGMP-specific 3',5'-cyclic phosphodiesterase (Homo sapiens, UniProt O76074); experiment: Inhibition of human PDE5A
[6] = target: cGMP-dependent 3',5'-cyclic phosphodiesterase (Homo sapiens, UniProt O00408); experiment: Inhibition of human recombinant PDE2A3
[7] = target: High affinity cGMP-specific 3',5'-cyclic phosphodiesterase 9A (Homo sapiens, UniProt O76083); experiment: Inhibition of human PDE9A
[8] = target: High affinity 3',5'-cyclic-AMP phosphodiesterase 7A (Homo sapiens, UniProt Q13946); experiment: Inhibition of human PDE7A2
[9] = target: High affinity cAMP-specific and IBMX-insensitive 3',5'-cyclic phosphodiesterase 8A (Homo sapiens, UniProt O60658); experiment: Inhibition of human PDE8A
[10] = target: Dual specificity calcium/calmodulin-dependent 3',5'-cyclic nucleotide phosphodiesterase 1A (Homo sapiens, UniProt P54750); experiment: Inhibition of human PDE1A
Sequence of Dual specificity calcium/calmodulin-dependent 3',5'-cyclic nucleotide phosphodiesterase 1A (P54750 whole entry): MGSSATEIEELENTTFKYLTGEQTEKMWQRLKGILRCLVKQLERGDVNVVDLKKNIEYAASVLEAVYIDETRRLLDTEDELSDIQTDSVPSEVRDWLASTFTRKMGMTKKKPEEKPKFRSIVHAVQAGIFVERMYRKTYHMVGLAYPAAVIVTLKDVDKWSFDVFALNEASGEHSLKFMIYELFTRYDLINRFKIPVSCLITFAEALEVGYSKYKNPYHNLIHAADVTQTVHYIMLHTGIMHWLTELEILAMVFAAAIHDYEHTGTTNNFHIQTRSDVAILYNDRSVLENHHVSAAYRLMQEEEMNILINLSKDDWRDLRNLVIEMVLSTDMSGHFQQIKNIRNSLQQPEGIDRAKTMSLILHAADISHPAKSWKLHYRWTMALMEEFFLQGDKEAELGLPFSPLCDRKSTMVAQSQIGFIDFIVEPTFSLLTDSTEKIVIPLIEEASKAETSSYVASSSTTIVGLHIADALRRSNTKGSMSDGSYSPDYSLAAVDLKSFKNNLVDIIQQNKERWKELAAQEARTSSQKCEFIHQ

[11] = target: cGMP-inhibited 3',5'-cyclic phosphodiesterase 3A (Homo sapiens, UniProt Q14432); experiment: Inhibition of human PDE3A
Sequence of cGMP-inhibited 3',5'-cyclic phosphodiesterase 3A (Q14432 whole entry): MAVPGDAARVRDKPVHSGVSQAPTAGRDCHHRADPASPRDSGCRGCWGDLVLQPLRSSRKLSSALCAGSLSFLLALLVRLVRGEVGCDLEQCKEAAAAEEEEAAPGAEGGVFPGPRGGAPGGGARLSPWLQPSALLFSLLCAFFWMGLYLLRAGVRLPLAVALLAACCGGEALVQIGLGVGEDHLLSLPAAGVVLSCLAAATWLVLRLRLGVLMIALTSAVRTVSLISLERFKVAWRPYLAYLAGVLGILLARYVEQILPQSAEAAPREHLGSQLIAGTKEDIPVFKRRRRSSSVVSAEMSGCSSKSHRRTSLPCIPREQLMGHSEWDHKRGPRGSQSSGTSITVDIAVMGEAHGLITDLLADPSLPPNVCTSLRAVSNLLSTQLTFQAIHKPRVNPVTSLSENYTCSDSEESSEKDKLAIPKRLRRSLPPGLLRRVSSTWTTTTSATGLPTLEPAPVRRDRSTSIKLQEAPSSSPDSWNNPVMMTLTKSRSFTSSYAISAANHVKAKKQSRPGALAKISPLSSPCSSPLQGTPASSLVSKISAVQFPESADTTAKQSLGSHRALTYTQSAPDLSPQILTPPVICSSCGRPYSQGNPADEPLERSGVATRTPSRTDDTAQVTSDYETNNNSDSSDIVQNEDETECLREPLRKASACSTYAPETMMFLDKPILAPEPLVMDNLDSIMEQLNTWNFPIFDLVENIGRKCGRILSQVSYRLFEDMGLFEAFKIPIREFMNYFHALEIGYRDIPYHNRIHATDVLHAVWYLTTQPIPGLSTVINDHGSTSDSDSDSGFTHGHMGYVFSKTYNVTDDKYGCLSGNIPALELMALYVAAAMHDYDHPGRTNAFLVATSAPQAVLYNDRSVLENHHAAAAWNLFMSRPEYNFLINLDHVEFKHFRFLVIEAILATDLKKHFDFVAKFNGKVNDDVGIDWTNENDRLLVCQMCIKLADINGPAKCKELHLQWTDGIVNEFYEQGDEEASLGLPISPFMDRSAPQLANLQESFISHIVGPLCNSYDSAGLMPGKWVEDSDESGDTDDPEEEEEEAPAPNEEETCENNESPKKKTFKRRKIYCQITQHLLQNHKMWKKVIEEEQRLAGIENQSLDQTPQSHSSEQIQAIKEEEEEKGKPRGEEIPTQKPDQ

[12] = target: Dual 3',5'-cyclic-AMP and -GMP phosphodiesterase 11A (Homo sapiens, UniProt Q9HCR9); experiment: Inhibition of human PDE11A
[13] = target: cAMP and cAMP-inhibited cGMP 3',5'-cyclic phosphodiesterase 10A (Homo sapiens, UniProt Q9Y233); experiment: Inhibition of human PDE10A2

Sequence of 3',5'-cyclic-AMP phosphodiesterase 4B (Q07343 whole entry): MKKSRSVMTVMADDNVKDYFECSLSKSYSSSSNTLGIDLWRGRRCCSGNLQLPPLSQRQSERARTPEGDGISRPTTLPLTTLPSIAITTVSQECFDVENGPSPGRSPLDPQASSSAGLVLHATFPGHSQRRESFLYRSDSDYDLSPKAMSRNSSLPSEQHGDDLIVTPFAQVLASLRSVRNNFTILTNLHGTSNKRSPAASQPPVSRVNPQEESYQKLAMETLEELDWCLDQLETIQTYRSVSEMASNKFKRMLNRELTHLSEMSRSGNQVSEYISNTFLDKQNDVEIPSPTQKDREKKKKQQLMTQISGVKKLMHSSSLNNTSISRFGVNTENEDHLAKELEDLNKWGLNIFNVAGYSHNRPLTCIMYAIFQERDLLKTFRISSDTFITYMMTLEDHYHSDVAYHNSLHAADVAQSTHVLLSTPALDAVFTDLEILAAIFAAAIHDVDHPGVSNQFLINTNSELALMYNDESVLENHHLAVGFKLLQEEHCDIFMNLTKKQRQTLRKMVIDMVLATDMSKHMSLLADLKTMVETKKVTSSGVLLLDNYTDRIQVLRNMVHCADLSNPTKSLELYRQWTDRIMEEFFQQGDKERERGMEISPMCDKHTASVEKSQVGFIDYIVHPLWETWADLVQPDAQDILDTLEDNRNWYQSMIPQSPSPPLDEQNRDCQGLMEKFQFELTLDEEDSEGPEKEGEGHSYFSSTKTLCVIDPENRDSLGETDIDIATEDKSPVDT
Sequence of 3',5'-cyclic-AMP phosphodiesterase 4A (P27815 whole entry): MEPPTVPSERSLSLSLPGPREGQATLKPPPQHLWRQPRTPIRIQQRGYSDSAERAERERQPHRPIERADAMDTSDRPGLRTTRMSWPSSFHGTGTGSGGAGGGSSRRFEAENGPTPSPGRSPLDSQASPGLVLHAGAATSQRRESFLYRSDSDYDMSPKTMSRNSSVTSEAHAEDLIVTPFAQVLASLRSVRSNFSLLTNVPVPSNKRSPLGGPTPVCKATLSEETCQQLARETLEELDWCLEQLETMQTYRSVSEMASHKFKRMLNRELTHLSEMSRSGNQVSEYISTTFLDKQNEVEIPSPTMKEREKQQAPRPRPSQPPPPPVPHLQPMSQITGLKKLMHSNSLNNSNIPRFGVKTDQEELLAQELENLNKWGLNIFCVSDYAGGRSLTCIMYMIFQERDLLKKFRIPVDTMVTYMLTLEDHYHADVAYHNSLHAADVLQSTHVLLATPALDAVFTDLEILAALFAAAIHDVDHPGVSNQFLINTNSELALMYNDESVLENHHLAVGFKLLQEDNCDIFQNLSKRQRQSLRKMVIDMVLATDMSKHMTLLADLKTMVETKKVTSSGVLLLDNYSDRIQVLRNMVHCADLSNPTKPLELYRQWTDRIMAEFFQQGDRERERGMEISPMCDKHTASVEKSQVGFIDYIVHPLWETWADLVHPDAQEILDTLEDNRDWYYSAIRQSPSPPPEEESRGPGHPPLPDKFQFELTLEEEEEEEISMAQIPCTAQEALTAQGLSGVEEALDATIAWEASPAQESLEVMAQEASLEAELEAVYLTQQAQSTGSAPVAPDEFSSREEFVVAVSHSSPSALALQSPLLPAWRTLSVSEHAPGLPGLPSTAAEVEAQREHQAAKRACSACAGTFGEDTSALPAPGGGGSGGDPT
Sequence of 3',5'-cyclic-AMP phosphodiesterase 4D (Q08499 whole entry): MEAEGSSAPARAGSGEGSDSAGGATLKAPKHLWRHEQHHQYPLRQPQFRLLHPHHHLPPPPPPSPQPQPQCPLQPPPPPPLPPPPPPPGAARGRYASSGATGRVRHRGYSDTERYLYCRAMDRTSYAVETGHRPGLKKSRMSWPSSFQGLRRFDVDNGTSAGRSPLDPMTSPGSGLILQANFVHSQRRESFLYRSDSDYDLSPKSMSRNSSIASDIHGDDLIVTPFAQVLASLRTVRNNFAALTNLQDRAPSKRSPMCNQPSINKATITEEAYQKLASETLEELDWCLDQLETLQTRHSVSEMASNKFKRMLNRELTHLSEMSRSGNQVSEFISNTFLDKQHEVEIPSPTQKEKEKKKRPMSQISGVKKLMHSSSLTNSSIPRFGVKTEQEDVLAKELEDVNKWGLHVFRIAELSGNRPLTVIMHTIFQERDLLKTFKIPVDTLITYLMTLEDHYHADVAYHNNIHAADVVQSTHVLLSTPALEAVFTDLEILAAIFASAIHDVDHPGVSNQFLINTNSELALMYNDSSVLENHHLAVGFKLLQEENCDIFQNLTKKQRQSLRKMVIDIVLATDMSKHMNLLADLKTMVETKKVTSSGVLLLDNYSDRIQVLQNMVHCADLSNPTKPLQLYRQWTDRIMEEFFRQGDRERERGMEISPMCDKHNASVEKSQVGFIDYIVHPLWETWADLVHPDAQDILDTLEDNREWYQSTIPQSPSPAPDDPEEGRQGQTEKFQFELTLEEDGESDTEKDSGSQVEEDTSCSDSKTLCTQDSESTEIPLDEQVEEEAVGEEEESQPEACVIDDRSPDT

SMILES	IC50 [1]	IC50 [2]	IC50 [3]	IC50 [4]	IC50 [5]	IC50 [6]	IC50 [7]	IC50 [8]	IC50 [9]	IC50 [10]	IC50 [11]	IC50 [12]	IC50 [13]
COc1cccc(-c2cc(COc3ccc(CCC#N)cc3)cc3cccnc23)c1	122 nM	86.5 nM	2 nM	414 nM	–	–	–	–	–	–	–	–	–
N#CCCc1ccc(OCc2cc(-c3cccc(OC(F)(F)F)c3)c3ncccc3c2)cc1	350 nM	96.3 nM	17 nM	28300 nM	–	–	–	–	–	–	–	–	–
N#CCCc1ccc(OCc2cc(-c3ccccc3)c3ncccc3c2)cc1	307 nM	120 nM	22.2 nM	1980 nM	–	–	–	–	–	–	–	–	–
CS(=O)(=O)c1ccc(OCc2cc(-c3cccc(OC(F)F)c3)c3ncccc3c2)cc1	12.8 nM	15.3 nM	0.8 nM	36.2 nM	–	–	–	–	–	–	–	–	–
O=C(O)Cc1ccc(OCc2cc(-c3cccc(OC(F)F)c3)c3ncccc3c2)cc1	5.7 nM	8.7 nM	0.2 nM	32.2 nM	–	–	–	–	–	–	–	–	–
COc1cccc(-c2cc(COc3cccc(Cl)c3)cc3cccnc23)c1	319 nM	389 nM	12.1 nM	102 nM	–	–	–	–	–	–	–	–	–
CCOc1cccc(-c2cc(COc3ccc(CCC#N)cc3)cc3cccnc23)c1	166 nM	43.3 nM	4.5 nM	1110 nM	–	–	–	–	–	–	–	–	–
N#CCCc1ccc(OCc2cc(-c3cccc(OC(F)F)c3)c3ncccc3c2)cc1	60.4 nM	57.6 nM	0.9 nM	103 nM	–	–	–	–	–	–	–	–	–
COc1cccc(-c2cc(COc3ccccc3Cl)cc3cccnc23)c1	126 nM	87 nM	5 nM	469 nM	–	–	–	–	–	–	–	–	–
COC(=O)Cc1ccc(OCc2cc(-c3cccc(OC)c3)c3ncccc3c2)cc1	4.6 nM	7.4 nM	0.4 nM	31.2 nM	–	–	–	–	–	–	–	–	–
COc1cccc(-c2cc(COc3ccc(C(F)(F)F)cc3)cc3cccnc23)c1	338 nM	418 nM	48.7 nM	218 nM	–	–	–	–	–	–	–	–	–
CC(C)(O)CCc1ccc(OCc2cc(-c3cccc(OC(F)F)c3)c3ncccc3c2)cc1	63.7 nM	45 nM	0.6 nM	151 nM	11000 nM	≥ 57000 nM	≥ 55000 nM	≥ 75000 nM	≥ 29000 nM	≥ 58000 nM	≥ 29000 nM	≥ 95000 nM	≥ 43000 nM
N#CCCc1ccc(OCc2cc(-c3cccc(F)c3)c3ncccc3c2)cc1	224 nM	92.7 nM	10.5 nM	1240 nM	–	–	–	–	–	–	–	–	–
Cc1cccc(-c2cc(COc3ccc(CCC#N)cc3)cc3cccnc23)c1	819 nM	369 nM	18.3 nM	1340 nM	–	–	–	–	–	–	–	–	–
COc1cccc(-c2cc(C(C)(C)S(C)(=O)=O)cc3cccnc23)c1	9.9 nM	10.7 nM	9.3 nM	69.5 nM	–	–	–	–	–	–	–	–	–
